EC50 data for 22 compounds are collected here from patent US20250353853A1, “FLAVIVIRUS INHIBITORS” (IRBM S.P.A., priority 2022, published 2025).

The subject of the test is ZIKV replicon in Vero cells. Nature of the test: ZIKV Replication Inhibition Assay (replicon, NanoLuc). Conditions: Zika virus, Vero, 72 h, read-out: Zika Replicon EC50. On the technique in general: In antiviral work, replicon cells carry a viral genome segment that copies itself.

Where a name gives a salt, the structure may show the parent alone.

One may read the EC50 as the concentration giving half of the maximal effect. On to `CC(=O)NC[C@@H](Cc1ccc(-c2ccccc2)cc1)[n+]1cc([N-]C(=O)Nc2cccc(C(F)(F)F)c2)on1` [Example 71, (R)-(3-(1-([1,1′-biphenyl]-4-yl)-3-acetamidopropan-2-yl)-1,2,3-oxadiazol-3-ium-5-yl)((3-(trifluoromethyl)phenyl)carbamoyl)amide], for which the EC50 is above 20 µM.
The figure for `CC(Cc1ccccc1)[n+]1cc([N-]C(=O)Nc2cccc(Cl)c2)on1` (stereo not shown) [Example 8, ((3-chlorophenyl)carbamoyl)(3-(1-phenylpropan-2-yl)-1,2,3-oxadiazol-3-ium-5-yl)amide] is above 20 µM; for `CC(Cc1ccccc1)[n+]1cc([N-]C(=O)Nc2cc(F)cc(C(F)(F)F)c2)on1` (stereo not shown) [Example 11, ((3-fluoro-5-(trifluoromethyl)phenyl)carbamoyl)(3-(1-phenylpropan-2-yl)-1,2,3-oxadiazol-3-ium-5-yl)amide] it is above 20 µM; for `CC(=O)NC[C@H](Cc1ccc(-c2ccccc2)cc1)[n+]1cc([N-]C(=O)Nc2cccc(C(F)(F)F)c2)on1` [Example 70, (S)-(3-(1-(1,1′-biphenyl-4-yl)-3-acetamidopropan-2-yl)-1,2,3-oxadiazol-3-ium-5-yl)((3-(trifluoromethyl)phenyl)carbamoyl)amide] it is above 20 µM.
`Cc1nccnc1-c1ccc(C[n+]2cc([N-]C(=O)Nc3cccc(C(F)(F)F)c3)on2)cc1` [Example 86, (3-(4-(3-methylpyrazin-2-yl)benzyl)-1,2,3-oxadiazol-3-ium-5-yl)((3-(trifluoromethyl)phenyl)carbamoyl)amide]: the EC50 lay in the range of 0.1 to 1 µM.
Next, `O=C([N-]c1c[n+](Cc2ccc(-c3c(F)nc[nH]c3=O)cc2)no1)Nc1cccc(C(F)(F)F)c1` [Example 107, (3-(4-(4-fluoro-6-oxo-1,6-dihydropyrimidin-5-yl)benzyl)-1,2,3-oxadiazol-3-ium-5-yl)((3-(trifluoromethyl)phenyl)carbamoyl)amide]: 1 to 20 µM; `O=C([N-]c1c[n+](Cc2csc(-c3cncnc3)c2)no1)Nc1cccc(C(F)(F)F)c1` [Example 100, (3-((5-(pyrimidin-5-yl)thiophen-3-yl)methyl)-1,2,3-oxadiazol-3-ium-5-yl)((3-(trifluoromethyl)phenyl)carbamoyl)amide]: 0.1 to 1 µM; `CC(Cc1ccccc1)[n+]1cc([N-]C(=O)Nc2cncc(C(F)(F)F)c2)on1` (stereo not shown) [Example 15, (3-(1-Phenylpropan-2-yl)-1,2,3-oxadiazol-3-ium-5-yl)((5-(trifluoromethyl)pyridin-3-yl)carbamoyl)amide]: 1 to 20 µM.
Next, `Cc1noc(C)c1-c1ccc(C[n+]2cc([N-]C(=O)Nc3cccc(C(F)(F)F)c3)on2)cn1` [Example 104, (3-((6-(3,5-dimethylisoxazol-4-yl)pyridin-3-yl)methyl)-1,2,3-oxadiazol-3-ium-5-yl)((3-(trifluoromethyl)phenyl)carbamoyl)amide]: below 0.1 µM; `COc1ncc(-c2ccc(C[n+]3cc([N-]C(=O)Nc4cccc(C(F)(F)F)c4)on3)cc2)c(C)n1` [Example 90, (3-(4-(2-Methoxy-4-methylpyrimidin-5-yl)benzyl)-1,2,3-oxadiazol-3-ium-5-yl)((3-(trifluoromethyl)phenyl)carbamoyl)amide]: below 0.1 µM; `Cc1nc(OCCN(C)C)ncc1-c1ccc(C[n+]2cc([N-]C(=O)Nc3cccc(C(F)(F)F)c3)on2)nc1` [Example 43, (3-((5-(2-(2-(dimethylamino)ethoxy)-4-methylpyrimidin-5-yl)pyridin-2-yl)methyl)-1,2,3-oxadiazol-3-ium-5-yl)((3-(trifluoromethyl)phenyl)carbamoyl)amide]: 0.1 to 1 µM.
The figure for `COc1ncnc(C)c1-c1ccc(C[n+]2cc([N-]C(=O)Nc3cccc(C(F)(F)F)c3)on2)cc1` [Example 111, (3-(4-(4-methoxy-6-methylpyrimidin-5-yl)benzyl)-1,2,3-oxadiazol-3-ium-5-yl)((3-(trifluoromethyl)phenyl)carbamoyl)amide] is below 0.1 µM; for `O=C([N-]c1on[n+](Cc2ccccc2)c1Cl)Nc1cccc(C(F)(F)F)c1` [Example 24, (3-Benzyl-4-chloro-1,2,3-oxadiazol-3-ium-5-yl)((3-(trifluoromethyl)phenyl)carbamoyl)amide] it is above 20 µM.
With `Cc1ncncc1-c1ccc([C@H](C)[n+]2cc([N-]C(=O)Nc3cccc(C(F)(F)F)c3)on2)cc1` [Example 79, (S)-(3-(1-(4-(4-methylpyrimidin-5-yl)phenyl)ethyl)-1,2,3-oxadiazol-3-ium-5-yl)((3-(trifluoromethyl)phenyl)carbamoyl)amide], the EC50 was below 0.1 µM.
As to `NC[C@H](Cc1ccc(-c2ccccc2)cc1)[n+]1cc([N-]C(=O)Nc2cccc(C(F)(F)F)c2)on1` [Example 65, (S)-(3-(1-([1,1′-biphenyl]-4-yl)-3-aminopropan-2-yl)-1,2,3-oxadiazol-3-ium-5-yl)((3-(trifluoromethyl)phenyl)carbamoyl)amide formate], the EC50 is 1 to 20 µM.
Next, `CC(c1ccccc1)[n+]1cc([N-]C(=O)Nc2cccc(C(F)(F)F)c2)on1` (stereo not shown) [Example 38, (3-(1-phenylethyl)-1,2,3-oxadiazol-3-ium-5-yl)((3-(trifluoromethyl)phenyl)carbamoyl)amide]: 1 to 20 µM; `O=C([N-]c1c[n+](Cc2ccc(-c3cncnc3C3CC3)cc2)no1)Nc1cccc(C(F)(F)F)c1` [Example 91, (3-(4-(4-cyclopropylpyrimidin-5-yl)benzyl)-1,2,3-oxadiazol-3-ium-5-yl)((3-(trifluoromethyl)phenyl)carbamoyl)amide]: 0.1 to 1 µM.
The figure for `NC[C@@H](Cc1ccccc1)[n+]1cc([N-]C(=O)Nc2cccc(C(F)(F)F)c2)on1` [Example 49, (R)-(3-(1-amino-3-phenylpropan-2-yl)-1,2,3-oxadiazol-3-ium-5-yl)((3-(trifluoromethyl)phenyl)carbamoyl)amide formate] is above 20 µM.
Next, `O=C([N-]c1c[n+]([C@@H](CO)c2ccccc2)no1)Nc1cccc(C(F)(F)F)c1` [Example 30, (R)-(3-(2-hydroxy-1-phenylethyl)-1,2,3-oxadiazol-3-ium-5-yl)((3-(trifluoromethyl)phenyl)carbamoyl)amide]: 1 to 20 µM; `Cc1noc(C)c1-c1ncc(C[n+]2cc([N-]C(=O)Nc3cccc(C(F)(F)F)c3)on2)cn1` [Example 174, (3-((2-(3,5-dimethylisoxazol-4-yl)pyrimidin-5-yl)methyl)-1,2,3-oxadiazol-3-ium-5-yl)((3-(trifluoromethyl)phenyl)carbamoyl)amide]: 0.1 to 1 µM.
Take `Cc1noc(C)c1-c1ccc(C[n+]2cc([N-]C(=O)Nc3cccc(C(F)(F)F)c3)on2)cc1` [Example 78, (3-(4-(3,5-dimethylisoxazol-4-yl)benzyl)-1,2,3-oxadiazol-3-ium-5-yl)((3-(trifluoromethyl)phenyl)carbamoyl)amide]: the EC50 is below 0.1 µM.
Next, `Cc1cc(C[n+]2cc([N-]C(=O)Nc3cccc(C(F)(F)F)c3)on2)ccc1-c1c(C)noc1C` [Example 88, (3-(4-(3,5-Dimethylisoxazol-4-yl)-3-methylbenzyl)-1,2,3-oxadiazol-3-ium-5-yl)((3-(trifluoromethyl)phenyl)carbamoyl)amide]: below 0.1 µM.
